# According to patent US20170128059A1, “METHODS AND APPARATUS FOR PREVENTION OF SURGICAL SITE INFECTIONS” (priority 2015, published 2017):
# Experiments:
# [1] = serum and wound tissue gentamicin concentration by ELISA after local delivery through the surgical device; conditions: E-F group
# Experimental: The 7 pigs were divided into two groups each: 1. Control (n=1) where no device was used and a sham procedure was performed. 2. “Experimental-No Fluid” (E-NF) group (n=3) where the surgical device was used without any irrigation delivered through the device in order to mimic conditions with other non-irrigating surgical retractors. 3. […] The irrigation fluid was delivered via gravity drainage from an IV bag hung on a pole at a height of 6 feet, and removal of fluid from the device was achieved via wall suction into a standard surgical canister. Both the fluid delivery and fluid removal mechanisms were integrated into the surgical device via separate tubing connections. The total time of irrigation averaged approximately 4 hours.
# Experimental data was collected at two time points. Time 1 was after 4 hours of simulated surgery and/or irrigation and at the time of device removal. Time 2 was 4 hours after wound closure (e.g. at the time of wound reopening).
# In the E-F group, peripheral blood samples were drawn by the anesthetists at Times 1 and 2. The blood was collected in serum-separator tubes and centrifuged. […] Two 4 mm×8 mm punch biopsies at each time point were taken, homogenized, and diluted in 1 mL phosphate buffered saline (PBS). The sample was centrifuged, and the supernatant was isolated for ELISA analysis.
# [2] = test system: E. coli; conditions: cited from earlier work
# [3] = intravenous administration, 240 mg; cited from earlier work
# [4] = test system: E. coli; assay: acute abdominal surgical model with E. coli contamination, quantitative wound tissue culture; type: in vivo, pigs; conditions: E-F group
# Experimental: In the gentamicin group, the degree of systemic absorption of the antibiotic was quantified.
# Seven female adult pigs weighing 50-70 kg were placed under general anesthesia and monitored for the duration of the experimental protocol. The abdomen was shaved, sterilely prepped with chlorhexidine solution, and draped under sterile conditions. A 12-cm periumbilical midline incision was made and the abdominal cavity was entered. After approximately 2.5 hours of wound retraction to simulate a prototypical length of time for colonic dissection, a gentamicin-sensitive E. coli suspension at a standardized concentration of 10^9 colony-forming units (CFU) in 10 mL normal saline was dripped onto the central colon. E. coli is classified as an enteric bacteria species. […]
# FIGS. 28A-28B show the locations at which two swab samples were taken just prior to device removal (e.g. at Time 1). […] Colonies were identified as E. coli, enumerated, and recorded, and the results for serial dilutions were internally validated. […] Tissue culture results were expressed as colony-forming units (CFU) per gram. […]
# Quantitative culture results were expressed in mean±standard deviation (SD). Statistical comparisons of quantitative culture results were performed using the Student's t-test. Significance was determined based on a value of p<0.05.
# [5] = test system: E. coli; assay: minimum inhibitory concentration of gentamicin, E. coli; type: cell-based
# From the text: The extent of absorption of a fluid or solute into the tissue may be a function of the rate of fluid delivery, concentration of solutes (if any) in the delivered fluid, physical characteristics of the solutes (if any), the porosity of the tissue, tortuousity of the tissue, systemic absorption via the capillary bed and subsequent renal clearance, and/or the time period over which the surgical device and delivered fluid are in contact with the wound tissues. […] The minimum inhibitory concentration (16 mg/L) was reached are the wound surface in about 3 minutes of fluid delivery. […] The surgical device may thus be able to reduce microbial growth in wounds even after being removed, which may result in a lower risk of developing a surgical site infection.
# The surgical device may be used to deliver a therapeutic fluid to a wound tissue to maintain a constant therapeutic concentration in the tissue. The therapeutic concentration in the tissue may be maintained for a portion of or the entire duration of the surgical procedure. The concentration of the therapeutic agent (e.g. antibiotic) may be maintained within a pre-determined range. The pre-determined concentration may depend on the type of therapeutic used as described herein. […] The therapeutic concentration may be at or above the minimum inhibitory concentration. […]
# [6] = test system: gram-negative bacteria present in colorectal surgeries; conditions: required to neutralize gram-negative bacteria present in colorectal surgeries; cited from earlier work
# [7] = finite-element (COMSOL) simulation of local gentamicin delivery to a retracted surgical wound; conditions: calculated model parameter, adipose wound tissue
# From the text: In order to better understand the differences between systemic delivery and local delivery of therapeutic agents, a finite-element analysis software package (COMSOL) was used to generate a three dimensional (3D) model of a retracted surgical wound with a 12 cm incision. […] The 3D model shown in FIG. 23 was modeled in a Computer Aided Design (CAD) package (Solidworks) based on the geometry of the device and the retracted wound tissue in a cadaver.
# Gentamicin, a member of the aminoglycoside family, was used as the antibiotic in the model due to its prevalence in clinical use to combat the enteric, gram-negative bacteria that cause wound infections. A concentration of 240 mg/L was delivered during the simulated 4 hr surgery based on standard clinical protocols.
# where Φ, D, and C are the particle flux, diffusion coefficient, and concentration, respectively. […]
# The diffusion coefficients of various solutes and solvents have been experimentally obtained and published. However, for solute-solvent combinations that have not been published or experimentally determined, the molecular weight of a given solute may be correlated to the diffusion coefficient in the same solvent using a logarithmic relation. […]
# The simulation was run for four hours to mimic a standard colorectal procedure and the antibiotic flux and tissue concentration was recorded at each time step.
substance,measurement,setting,value
gentamicin,gentamicin concentration at the wound margins (tissue),"[1]; Time 1, punch biopsies of subcutaneous fat",0.97 ± 0.33 mg/kg
same,gentamicin concentration at the wound margins (tissue),"[1]; Time 2, punch biopsies of subcutaneous fat",0.60 ± 0.37 mg/kg
same,minimum inhibitory concentration,[2],16 µg/mL
same,peak tissue concentration relative to minimum inhibitory concentration,[3],4.5 times
same,time of peak tissue concentration after administration,[3],roughly 20 minutes
same,quantitative wound culture (E. coli) in tissue sample,"[4]; 240 mg gentamicin sulfate in 1 L saline through device, Time 1 (device removal)",1.25±1.55×10^2 CFU/gm
same,quantitative wound culture (E. coli) in tissue sample,[4]; Time 2 (4 hours after wound closure),2.08±3.01×10^2 CFU/gm
same,delivered fluid concentration (240 mg/L) relative to typical minimum inhibitory concentration of E. coli,[5],about 60 time greater
same,minimum inhibitory concentration (MIC),[6],0.003 mol/m^3
same,Effective Diffusion Coefficient,[7],1.88E−6 cm^2/s
